The values that follow come from patent US7547804B2, “Compounds, compositions, and methods employing same” (Myriad Genetics, Inc., priority 2002, dated 2009).

In general, EC50 refers to the concentration at which the effect is half-maximal.

The first assay concerns LNCaP cell lines. Description: WST-1 Cell Proliferation and Viability Assay. It is filed as cell-based. The following applies: Homo sapiens; LNCaP cells, compound incubation 18-72 hours. In outline: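 LNCaP cells (5000/well, phenol-red-free RPMI-1640 with 10% FCS) were plated overnight, then exposed to compounds in 0.1% DMSO final for 18-72 hours at 37 °C. Viability was read by WST-1 conversion to formazan after 3 h further incubation, measured at A490-A650.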
As for `CC(C)c1cccc(C(=O)Nc2cccc(OCCc3ccccc3)c2)c1O` [Compound 201], the 50% effective concentration (EC50) is 33 µM.

For `COc1ccccc1CCOc1cccc(NC(=O)c2cccc(C(C)C)c2O)c1` [Compound 203], the EC50 was found to be 33 µM.

With `Cc1ccc(C(=O)NCc2cccc(-c3ccccc3)c2)c(O)c1` [Compound 205], the response was half-maximal at 43 µM (EC50).

Regarding `Cc1ccc(O)c(C(=O)NCc2cccc(-c3ccccc3)c2)c1` [Compound 206], the 50% effective concentration (EC50) came to 34 µM.

In turn, `COc1ccccc1CCOc1cccc(NC(=O)c2cccc(C)c2O)c1` [Compound 207] returned a half-maximal effective concentration (EC50) of 33 µM.

As for `COc1ccccc1CCOc1cccc(NC(=O)c2ccc(C)cc2O)c1` [Compound 208], the EC50 turned out to be 21 µM.

The molecule `COc1ccccc1CCOc1cccc(NC(=O)c2cc(C)ccc2O)c1` [Compound 209] gave an EC50 of 17 µM.

In turn, `Cc1cccc(C(=O)Nc2cccc(OCCc3ccccc3)c2)c1O` [Compound 210] came in with an EC50 of 22 µM.

In turn, `Cc1ccc(C(=O)Nc2cccc(OCCc3ccccc3)c2)c(O)c1` [Compound 211] gave an EC50 of 22 µM.

In turn, `Cc1ccc(O)c(C(=O)Nc2cccc(OCCc3ccccc3)c2)c1` [Compound 212] had an EC50 of 20 µM.

For the molecule `CC(C)(C)c1cc(C(=O)NCc2cccc(-c3ccccc3)c2)c(O)c(C(C)(C)C)c1` [Compound 219], a half-maximal response (EC50) required 32 µM.

On to `COc1ccccc1CCOc1cccc(NC(=O)c2cccc(-c3ccccc3)c2O)c1` [Compound 221], for which the concentration for a half-maximal effect (EC50) stood at 17 µM.

`COc1ccccc1CCOc1cccc(NC(=O)c2cc(-c3ccc(F)cc3F)ccc2O)c1` [Compound 223]: the midpoint of the response, the EC50, lay at 8 µM.

Turning to `O=C(Nc1cccc(OCCc2ccccc2)c1)c1cccc(-c2ccccc2)c1O` [Compound 224], a half-maximal response (EC50) required 22 µM.

Regarding `O=C(Nc1cccc(OCCc2ccccc2)c1)c1cc(-c2ccc(F)cc2F)ccc1O` [Compound 226], the half-maximal effective concentration (EC50) was determined as 7 µM.

`COc1ccccc1CCOc1cccc(NC(=O)c2cc(-n3cccc3)ccc2O)c1` [Compound 233]: a half-maximal effect (EC50) was put at 10 µM.

Consider `COc1ccccc1CCOc1cccc(NC(=O)c2cc(-c3ccccc3)ccc2O)c1` [Compound 234], for which it took 10 µM to reach a half-maximal effect (EC50).

`COc1cccc(-c2ccc(O)c(C(=O)Nc3cccc(OCCc4ccccc4OC)c3)c2)c1` [Compound 235] displayed an EC50 of 6 µM.

Turning to `CCC(C)c1cccc(-c2cccc(CNC(=O)c3cc(Cl)ccc3O)c2)c1` (stereo not shown) [Compound 236], the EC50 was determined as 11 µM.

In turn, `Cc1cc(Cl)c(OCCc2ccccc2C(F)(F)F)c(NC(=O)c2cc(Cl)ccc2O)c1C` [Compound 240] registered an EC50 of 10 µM.

Consider `CC1CN(c2ccc(NC(=O)c3cc(Cl)ccc3O)c(OCCc3ccccc3C(F)(F)F)c2)CC(C)O1` (stereo not shown) [Compound 241], for which the 50% effective concentration (EC50) was determined as 3 µM.

With `O=C(Nc1cc(Cl)cc(Cl)c1OCCc1cccc(C(F)(F)F)c1)c1cc(Cl)ccc1O` [Compound 242], a half-maximal response (EC50) required 2 µM.

Consider `Cc1cc(OCCc2cccc(C(F)(F)F)c2)c(NC(=O)c2cc(Cl)ccc2O)cc1Cl` [Compound 243], for which the EC50 turned out to be 1 µM.

The molecule `O=C(Nc1cc(C(F)(F)F)ccc1OCCc1cccs1)c1cc(Cl)ccc1O` [Compound 244] returned a concentration for a half-maximal effect (EC50) of 0.9 µM.

`O=C(Nc1cc(C(F)(F)F)ccc1OCCc1ccsc1)c1cc(Cl)ccc1O` [Compound 245]: the response was half-maximal at 0.9 µM (EC50).

The molecule `CC(C)COc1ccc(Cl)cc1NC(=O)c1cc(Cl)ccc1O` [Compound 246] had a concentration giving a half-maximal response (EC50) of 2 µM.

For `O=C(Nc1cc(C(F)(F)F)ccc1OCCc1ccccc1Cl)c1cc(Cl)ccc1O` [Compound 247], the EC50 worked out at 0.9 µM.

In turn, `O=C(Nc1cc(C(F)(F)F)ccc1OCCc1cccc(Cl)c1)c1cc(Cl)ccc1O` [Compound 248] yielded an EC50 of 0.5 µM.

`O=C(Nc1cc(C(F)(F)F)ccc1OCCc1ccc(Cl)c(Cl)c1)c1cc(Cl)ccc1O` [Compound 249] came in with an EC50 of 0.9 µM.

`O=C(Nc1ccc(Cl)cc1OCCc1ccc(Cl)cc1)c1cc(Cl)ccc1O` [Compound 250] came in with an EC50 of 2 µM.

`O=C(Nc1cc(C(F)(F)F)cc(Cl)c1OCCc1ccccc1C(F)(F)F)c1cc(Cl)ccc1O` [Compound 251]: the response was half-maximal at 2 µM (EC50).

`O=C(Nc1cc(C(F)(F)F)cc(Cl)c1OCCc1cccc(C(F)(F)F)c1)c1cc(Cl)ccc1O` [Compound 252] came in with an EC50 of 1 µM.

`O=C(Nc1cc(C(F)(F)F)ccc1OCCc1ccc(Cl)cc1Cl)c1cc(Cl)ccc1O` [Compound 253] showed a concentration for a half-maximal effect (EC50) of 1 µM.

`O=C(Nc1cc(C(F)(F)F)ccc1OCCc1ccc(Cl)s1)c1cc(Cl)ccc1O` [Compound 254] gave an EC50 of 1 µM.

`COc1ccc(NC(=O)c2cc(Cl)ccc2O)c(OC)c1` [Compound 256] returned a half-maximal effective concentration (EC50) of 26 µM.

Molecule `O=C(Nc1cc(C(F)(F)F)ccc1SCCc1ccccc1)c1cc(Cl)ccc1O` [Compound 259] showed an EC50 of 1 µM.

In turn, `O=C(Nc1cc(C(F)(F)F)ccc1SCCc1cccc(C(F)(F)F)c1)c1cc(Cl)ccc1O` [Compound 260] came in with a concentration giving a half-maximal response (EC50) of 1 µM.

With `O=CNc1cccc(C(=O)Nc2cc(C(F)(F)F)ccc2OCCc2cccc(C(F)(F)F)c2)c1O` [Compound 261], the 50% effective concentration (EC50) was determined as 6 µM.

Consider `O=C(Nc1cc(OC(F)(F)F)ccc1OCCc1cccc(C(F)(F)F)c1)c1cc(Cl)ccc1O` [Compound 262], for which the EC50 amounted to 0.9 µM.

With `O=C(Nc1cc(C(F)(F)F)cc(Cl)c1OCCc1ccc(Cl)cc1)c1cc(Cl)ccc1O` [Compound 263], the response was half-maximal at 2 µM (EC50).

On to `O=C(Nc1cc(C(F)(F)F)ccc1Oc1ccc(Cl)c2ccccc12)c1cc(Cl)ccc1O` [Compound 264], for which the EC50 worked out at 1 µM.

`O=C(Nc1cc(C(F)(F)F)ccc1OCCC1CC1)c1cc(Cl)ccc1O` [Compound 265] came in with an EC50 of 0.9 µM.

With `O=C(Nc1cc(C(F)(F)F)ccc1OCc1ccccc1)c1cc(Cl)ccc1O` [Compound 266], the EC50 is 0.9 µM.

The molecule `O=CNc1cccc(C(=O)Nc2cc(C(F)(F)F)ccc2Oc2ccc(Cl)c3ccccc23)c1O` [Compound 269] returned an EC50 of 8 µM.

The molecule `O=C(Nc1cc(C(F)(F)F)ccc1OCCC(F)(F)F)c1cc(Cl)ccc1O` [Compound 271] displayed a concentration giving a half-maximal response (EC50) of 0.9 µM.

Still in this assay, the particulars now being: Homo sapiens; LNCaP cells; flagged "Estimated": based on actual data at different concentrations.
Turning to `COc1ccc(Cl)cc1C(=O)N(C)c1cccc(OCCc2ccccc2)c1` [Compound 215], the EC50 is 45 µM.

Consider `COc1ccccc1CCOc1cccc(N(C)C(=O)c2cc(Cl)ccc2OC)c1` [Compound 216], for which the concentration giving a half-maximal response (EC50) was 32 µM.

For the molecule `O=C(NCc1cccc(-c2ccccc2)c1)c1cccc(-c2ccccc2)c1O` [Compound 218], the 50% effective concentration (EC50) was 32 µM.

With `O=C(NCc1cccc(-c2ccccc2)c1)c1cc(-c2ccc(F)cc2F)ccc1O` [Compound 220], the concentration for a half-maximal effect (EC50) was 20 µM.

Regarding `O=C(Nc1cccc(OCCc2ccccc2)c1)c1cccc(O)c1` [Compound 227], the 50% effective concentration (EC50) was 22 µM.

Regarding `COc1ccccc1CCOc1cccc(N(C)C(=O)c2cc(Cl)ccc2O)c1` [Compound 228], the half-maximal effective concentration (EC50) was 30 µM.

As to `COc1ccccc1CCOc1cccc(NC(=O)c2cc(Cl)ccc2[N+](=O)[O-])c1` [Compound 229], the EC50 is 30 µM.

For `O=C(NCc1ccccc1-c1ccccc1)c1cc(Cl)ccc1O` [Compound 237], the concentration for a half-maximal effect (EC50) is 30 µM.

Take `O=C(NCc1cccc(-c2ccccc2)c1)c1cc(Cl)ccc1O` [Compound 238]: the concentration for a half-maximal effect (EC50) is 30 µM.

Regarding `O=C(Nc1ccccc1C(=O)NCc1ccccc1)c1cc(Cl)ccc1O` [Compound 255], the EC50 is 30 µM.
